Experimental data published in patent US10426813B2, “Method to enhance endurance” (KYOWA HAKKO BIO CO., LTD., priority 2009, dated 2019).
Entries after “also recorded” stand apart in the source; their conditions may differ. Peptide text beside a SMILES is read from it.

What was measured:
[1] = Time to exhaustion test on cycle ergometer at 75% VO2 max after dehydration and rehydration; assay type: in vivo, human
From the text: (§1) On four of the five subsequent visits to the HPL, subjects dehydrated to 2.5% of their baseline body mass. On the occasion that a dehydration protocol was not employed, subjects reported to the HPL in a euhydrated state to provide a baseline blood draw and perform the exercise protocol. This trial (T1) provided baseline performance data for how subjects performed in optimal conditions without hydration stress. All performance comparisons were made to this trial. In one trial (T2) subjects achieved their goal weight (−2.5% of baseline body weight) and rested in a recumbent position for 45 minutes before commencing the exercise session. In the subsequent three trials subjects reached their goal weight (−2.5% of baseline body mass) and then rehydrated to −1.5% of their baseline body mass by drinking either water (T3) or two different doses (T4 and T5) of the alanyl-glutamine (ALA-GLU) supplement (0.05 g·kg^−1 and 0.2 g·kg^−1, respectively). During the hydration trials (T3-T5), the exercise protocol began 45 minutes following reaching their goal weight. During this time frame, subjects were rehydrated. The order of the trials was randomly determined.
On the night before testing (5 p.m.), subjects reported to the HPL for weighing and urine specific gravity measures to ascertain that subjects were euhydrated. Subjects were then instructed to not consume any food or water until the next day when they reported back to the HPL (7 a.m.). […] On the morning of trials T2-T5, subjects reporting to the HPL were weighed and began the active dehydration protocol to achieve the desired weight loss. The active dehydration protocol required subjects to walk on a motorized treadmill at 3.4 mi·h^−1 and at a 2% incline. Subjects were fully clothed in a training suit (long cotton heavy weight fleece sweat pants and top). Nude body weight, heart rate, and rating of perceived exertion were monitored at 20-minute increments. […] At the end of the dehydration period, a urine specimen and blood samples were obtained. Dehydration was verified by measuring urine specific gravity and both urine and plasma osmolality. The time necessary to reach the goal body mass (−2.5% weight loss) was 62.5±44.2 min.
(§2) Subjects consumed the supplement or placebo (water) following the dehydration protocol as part of their rehydration to −1.5% of their baseline body mass. The L-alanyl-L-glutamine supplement (0.2 g·kg^−1 or 0.05 g·kg^−1) (Kyowa Hakko USA, New York, N.Y.) was mixed with water and was indistinguishable in appearance and taste from the placebo.
After dehydration and rehydration (except during trial T2), subjects began the exercise protocol. Subjects exercised at a workload that elicited 75% of their VO2 max on a cycle ergometer. Subjects were encouraged to give their best effort during each trial, and were verbally encouraged throughout each exercise trial. Oxygen consumption, minute ventilation, respiratory exchange ratio, and heart rate were measured continuously. Heart rate and blood pressure were recorded before and at the conclusion of exercise. Time to exhaustion was determined as the time that the subject could no longer maintain the workload and/or reach volitional exhaustion.

[2] = Plasma glutamine concentration during hydration stress and endurance exercise; assay type: in vivo, human
From the text: as §1, §2
A baseline (BL) blood draw occurred during T1. No other blood was drawn during that trial. The BL blood sample was drawn following a 15-min equilibration period prior to exercise. […]
Hemoglobin was analyzed in triplicate from whole blood using the cyanmethemoglobin method (Sigma Diagnostics, St. Louis, Mo.). Hematocrit was analyzed in triplicate from whole blood via microcentrifugation (IEC micro-MB centrifuge, Needham, Mass.) and microcapillary technique. Plasma volume shifts following the workout were calculated using the formula of Dill & Costill (1974). […]

In the case of `C[C@H](N)C(=O)N[C@@H](CCC(N)=O)C(=O)O` [alanyl-glutamine, L-alanyl-L-glutamine] (H-Ala-Gln-OH), the “Δ performance: time to exhaustion (difference to T1)” value ([1]; T4, 0.05 g·kg^−1, compared to T2 (dehydrated, no rehydration)) is reported as “significantly greater times to exhaustion”, the “trend of inhibiting the decrease in duration of exercise endurance” value ([1]; T4, 0.05 g·kg^−1, compared to T3 (water only)) is reported as “even more pronounced” and the “Δ performance: time to exhaustion (difference to T1)” value ([1]; T5, 0.2 g·kg^−1, compared to T2 (dehydrated, no rehydration)) is reported as “significantly greater times to exhaustion”. For the same compound, the “trend of inhibiting the decrease in duration of exercise endurance” value ([1]; T5, 0.2 g·kg^−1, compared to T3 (water only)) was “even more pronounced”, the effect on endurance ([1]; overall conclusion, independent of increases in plasma glutamine concentration) was “endurance enhancing effect” and the Plasma glutamine concentration ([2]; T4, 0.05 g/kg, compared to T3 (water only)) was “No differences”. For the same compound, the Plasma glutamine concentration ([2]; T5, 0.2 g·kg^−1, at RHY and IP, compared to T2-T4) was “significantly higher; also recorded: significantly increased” and the “AUC of plasma glutamine concentration” value ([2]; T5, 0.2 g·kg^−1, compared to the other experimental trials) was “significantly higher”.
